Measured values from US20190175577A1, “METHOD FOR TREATING AMYOTROPHIC LATERAL SCLEROSIS” (UNIVERSITY OF MIAMI, priority 2017, published 2019).

Experiments:
[1] = tested on: ALS caused by SOD1 mutations; assay: randomized, double-blind placebo controlled phase II trial: efficacy (survival, ALSFRS-R, CAFS); type: in vivo, human; settings: for participants alive (and without PAV or tracheostomy): at 12 months
Protocol: (§1) Provided herein are the details of a completed, randomized, double-blind placebo controlled phase II trial. The trial was conducted at two sites and three academic medical centers in the United States. An independent medical monitor completed regular review of laboratory reports and adverse events (AEs), as well as real-time review of serious adverse events (SAEs). Eligibility criteria (FIG. 1) aimed to enroll, from across the U.S. and Canada, a population relatively early in the course of ALS caused by SOD1 mutations associated with rapidly progressive disease.
Randomization (1:1 to Arimoclomol or matching placebo) was stratified by Riluzole use and in block size of two within each stratum, and implemented using a central web-based electronic data capture (EDC) system managed by the Neurological Clinical Research Institute Data Management Center at MGH. The randomization schedule, generated by a study statistician, was provided to each research pharmacy. At randomization, the EDC assigned a subject identification number, which the site-coordinator submitted to the research pharmacy for drug dispensing. Encapsulated placebo was matched in color and appearance to active drug. Except for the research pharmacists, pharmacy monitors, and study statisticians, all other personnel and study participants were blinded to treatment assignments.
The first participants were randomized and administered 100 mg of Arimoclomol three times daily. After enrollment of the first 16 participants (of whom 8 were on Arimoclomol, including 1 subject subsequently excluded per protocol), the dosage was increased to 200 mg administered three times daily for all active participants (which for the Arimoclomol group included three subjects initially started at 100 mg administered three times daily), and all newly enrolled participants received 200 mg three times a day. All data were analyzed following the intent-to-treat principle.
Assessments were performed in person only at Baseline and Month-2, with remote assessments planned for all other visits. Neurological examination, motor unit number estimation (MUNE), and slow vital capacity (SVC) could only be performed in person. Other assessments, conducted at all visits (in person and remotely), included: vital signs; blood and urine for safety labs; ALSFRS-R (revised ALS Functional Rating Scale), which has been validated for telephone administration; and the forced expiratory volume in 6-seconds (FEV6). Miano et al., Amyotrophic Lateral Sclerosis And Other Motor Neuron Disorders: Official Publication Of The World Federation Of Neurology, Research Group On Motor Neuron Diseases 2004; 5:235-239; Vandevoorde et al., Chest 2005; 127:1560-1564. In addition, AEs, concomitant medications, study drug dose management, use of ventilatory support, and key study events were recorded at all visits.
Operationalization of remote assessments posed logistical challenges that required the introduction of two innovative features: (1) the collection of vital signs and blood/urine for safety labs in participants' homes, this was accomplished using the services of a mobile medical provider; and (2) the use of FEV6 as the principal measure of respiratory function. The key advantage of FEV6 over SVC is that FEV6 may be self-administered by the participant using a low-cost portable device (e.g., Piko-6, nSpireHealth, Inc.). […] Use of the FEV6 allowed for remote assessment of respiratory function, which otherwise would not have been available for collection in this trial. Reproducibility and normative data for FEV6 are established. Hankinson et al., Chest 2003; 124:1805-1811.
For efficacy, the principal outcome measure was PAV- and tracheostomy-free survival time, calculated from baseline to PAV (defined as first of seven consecutive days when PAV was used >22 hours/day) or tracheostomy, date of death (if no PAV or tracheostomy), or date of last available follow-up/study contact (if still PAV- and tracheostomy-free by then). […]

[2] = tested on: ALS caused by SOD1 mutations; set-up: species or system human; settings: in vivo
Protocol: as §1
Randomization (1:1 to Arimoclomol or matching placebo) was stratified by Riluzole use and in block size of two within each stratum, and implemented using a central web-based electronic data capture (EDC) system managed by the Neurological Clinical Research Institute Data Management Center at MGH. The randomization schedule, generated by a study statistician, was provided to each research pharmacy. At randomization, the EDC assigned a subject identification number, which the site-coordinator submitted to the research pharmacy for drug dispensing. […]
The first participants were randomized and administered 100 mg of Arimoclomol three times daily. […] All data were analyzed following the intent-to-treat principle.
Assessments were performed in person only at Baseline and Month-2, with remote assessments planned for all other visits. […] In addition, AEs, concomitant medications, study drug dose management, use of ventilatory support, and key study events were recorded at all visits.
The primary endpoint of safety and tolerability was based on the frequency of AEs, abnormal vital signs, and abnormal laboratory studies above or below pre-defined alert levels. […] In summarizing AEs: (a) if a participant experienced multiple occurrences of the same event, only the occurrence with the worst severity (or highest degree of relatedness to study drug) was counted; and (b) CTCAE events were further classified into subgroups (“AE type”), e.g., pneumonia and bronchitis were both classified as upper/lower respiratory infection.

## [O-][n+]1cccc(/C(Cl)=N/OC[C@H](O)CN2CCCCC2)c1 [Arimoclomol]
[1]; 95% CI: −2.50 to 11.64
  CAFS potential treatment benefit vs placebo: 4.57 points
[1]; A4V subgroup
  ALSFRS-R rate of decline, average (±SE): 2.6±0.5 points/month
[1]; A4V subgroup, 95% CI: −0.28 to 2.24, p=0.12
  treatment difference in ALSFRS-R rate of decline vs placebo: 0.98 points/month
[1]; CAFS
  win ratio, participant-to-participant comparison between the two groups: 1.6924
[1]; Cox proportional hazards model, Arimoclomol compared to control, 95% CI: 0.29-1.48, p=0.33
  unadjusted hazard ratio (HR), PAV- and tracheostomy-free survival: 0.67
[1]; Cox proportional hazards model, 95% CI: 0.32-1.80, p=0.55
  hazard ratio (HR) adjusted for baseline ALSFRS-R and Riluzole: 0.77
[1]; Vonesh shared parameter model, 95% CI: −0.33 to 1.86, p=0.16
  treatment difference in ALSFRS-R rate of decline, Vonesh model: 0.77±0.54 points/month
[1]; all participants, 95% CI: −0.63 to 1.63, p=0.37
  treatment difference in ALSFRS-R rate of decline vs placebo: 0.5 points/month
[1]; all participants, mixed model
  ALSFRS-R rate of decline, average (±SE): 2.5±0.4 points/month
[1]; all participants, Kaplan-Meier
  participants alive (and without PAV or tracheostomy): 34%
[1]; subgroup of A4V participants
  participants alive (and without PAV or tracheostomy): 29%
[1]; p=0.62
  direct effect of treatment on survival, Vonesh model: not significant
[1]; rank scores range from 1 (worst) to 36 (best)
  CAFS rank score, average (±SE): 20.9±2.5
[1]; translated from treatment difference of 0.5-1.0 points/month, not statistically significant
  ALSFRS-R difference over a one-year period: 6-12 points
[2]
  discontinuation because of adverse event: A single participant stopped Arimoclomol because of a skin rash
  relatedness of SAEs to study drug: none of which were considered related to study drug
  serious adverse events (SAEs) reported: 7
